# Test results taken from patent publication US20240368122A1, “JAK2 INHIBITORS AND METHODS OF USE THEREOF” (RELAY THERAPEUTICS, INC., priority 2021, published 2024).
# Like-named read-outs stand apart in the source and are kept apart here.
# Experiments:
# [1] = test system: TF1 JAK2 V617F STAT5 reporter; assay: Cellular TF1 STAT5 assay (luciferase reporter), JAK2 V617F; assay type: cell-based; conditions: read-out: Cell PD TF1 V617F STAT5 (IC50)
# Outline: (§1)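 TF1 V617F JAK2 reporter cells, 10k/well; 10-pt 1:3 dose response from 10 mM 1000× DMSO stock; 18-20 h, 37 °C, 5% CO2; ONE-glo, 10 min RT; luminescence. Triplicate plates, DMSO vehicle.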
# [2] = test system: TF1 JAK2 V617F STAT3 reporter; assay: Cellular TF1 STAT3 assay (luciferase reporter), JAK2 V617F; assay type: cell-based; conditions: read-out: Cell PD-TF1 JAK2 V617F STAT3 (IC50)
# Outline: as §1
# [3] = biological target: T1, JAK2 JH1 WT (T842-G1132) (Homo sapiens, UniProt O60674); assay: Surface Plasmon Resonance (SPR) binding assay, JAK2 JH1 domain
# T1 construct: *JAK2 JH1 WT (T842-G1132) N-His60-avi-TEV; His6 (N); TEV cleavage site (N); purchased Biortus
# T1 sequence (O60674 842-1132): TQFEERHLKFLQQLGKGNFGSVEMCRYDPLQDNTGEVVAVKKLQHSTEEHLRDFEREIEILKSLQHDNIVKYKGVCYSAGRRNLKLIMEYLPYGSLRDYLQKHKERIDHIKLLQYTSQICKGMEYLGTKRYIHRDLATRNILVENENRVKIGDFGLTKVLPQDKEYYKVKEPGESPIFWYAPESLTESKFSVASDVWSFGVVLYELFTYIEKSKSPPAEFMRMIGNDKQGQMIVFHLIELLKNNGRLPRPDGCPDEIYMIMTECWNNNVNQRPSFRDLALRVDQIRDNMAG
# Experimental: Selected compounds of the present disclosure were tested in a Surface Plasmon Resonance (SPR) Assay to measure their binding kinetics and affinity for proteins of interest.
# Prepare buffer: 50 mM HEPES pH 7.5, 150 mM NaCl, 0.05% (v/v) Tween, and 10% (v/v) glycerol were combined and pH was adjusted to 7.5, then filtered. 5 mM DTT, was added, and buffer without DMSO was reserved for compound resuspension. 2% (v/v) DMSO was added for assay buffer, and separately 1% DMSO was used to make buffer for resuspending compounds.
# Prepare compounds: Using a Bravo liquid handler, 99 μL of 1% (v/v) DMSO assay buffer was added to 1 μL compounds in DMSO.
# Run 8K Method: Biotin CAPture (CAP) chip surface was regenerated prior to run by: Inserting CAP chip into Biacore 8K, prime machine with assay buffer with 2% (v/v) DMSO; Setting instrument temperature to 20° C.; Conditioning surface with NaOH/GdnHCl reagents from CAP chip kit (60 seconds, 10 μL/min); and Capturing oligo-Streptavidin (SA) reagent from CAP kit (600 seconds, 1 μL/min), expected capture ˜2500 RU. JAK2 JH1 or JH2 protein was immobilized by preparing a sample of 0.5 uM JH1 or 0.4 uM JH2 protein diluted in assay buffer without DMSO and supplemented with 10 uM of a selected compound of the invention as a stabilizer (370 seconds, 5 uL/min), expected capture ˜1000 RU. Remaining biotin sites on SA were blocked with 1 uM biotin (30 seconds, 20 uL/min), then equilibrated for 1800 seconds at 100 uL/min. Compounds being assayed were run in single cycle kinetics: 4 doses with a top concentration of 5 uM (JH1) or 500 nM (JH2), dilution factor of 3, at 20° C., for a contact time of 60 seconds, and a dissociation time of 300 seconds (JH1) or 1200 seconds (JH2), at a flow rate of 30 uL/min. The surface was completely regenerated after each compound is run, and JH1 or JH2 protein was immobilized fresh prior to each new compound. Data were fitted kinetically with 1:1 binding model using Biacore Insight Evaluation Software.
# [4] = biological target: T2, JAK2 JH2 WT (V536-D812) [W659A, W777A, F794H solubilizing mutations] (Homo sapiens, UniProt O60674, F794H/W659A/W777A); assay: Surface Plasmon Resonance (SPR) binding assay, JAK2 JH2 domain
# T2 construct: **JAK2 JH2 WT (V536-D812) [W659A, W777A, F794H solubilizing mutations]; C-thrombin-avi-His6; thrombin cleavage site (C); His6 (C); purchased Biortus
# T2 sequence (O60674 536-812 W659A/W777A/F794H): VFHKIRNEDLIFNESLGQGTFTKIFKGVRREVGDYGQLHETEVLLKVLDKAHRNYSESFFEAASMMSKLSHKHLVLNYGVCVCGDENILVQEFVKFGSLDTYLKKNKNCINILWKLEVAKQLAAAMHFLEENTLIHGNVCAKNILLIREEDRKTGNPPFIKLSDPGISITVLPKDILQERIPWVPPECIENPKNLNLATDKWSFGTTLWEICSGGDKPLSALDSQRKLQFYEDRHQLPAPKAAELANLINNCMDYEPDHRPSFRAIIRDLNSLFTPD
# Outline: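 Kinetics came from 1:1 fits of single-cycle runs at 20 °C: four 3-fold dilutions from 5 uM for JH1 or 500 nM for JH2, 60 s association, and 300 s or 1200 s dissociation respectively. Protein was freshly captured per compound in the presence of 10 uM stabilizer compound, with running buffer of pH 7.5 HEPES/NaCl/glycerol/DTT plus 2% DMSO.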
# [5] = Homo sapiens, TF-1, TF1 cells, JAK2 V617F
Compound,IC50 ([1]; TF1 JAK2 V617F) [nM],IC50 ([2]; TF1 JAK2 V617F) [nM],"Kd ([3]; SPR, JAK2 JH1 domain) [nM]","Kd ([4]; SPR, JAK2 JH2 domain) [nM]","IC50 [1, 5] [nM]","IC50 [2, 5] [nM]",Kd [3] [nM],Kd [4] [nM]
CNC(=O)c1nnc(NC(=O)C2CC2)cc1Nc1ccc(C)c(-c2cnn(C3CN(Cc4cc(C#N)ccn4)C3)c2)c1OC [Compound 68],500 to 5000,500 to 5000,5000 to 100000,0.01 to 10,–,–,–,–
CNC(=O)c1nnc(NC(=O)C2CC2)cc1Nc1cccc(-c2ccc(C(=O)NCc3cccn(C)c3=O)nn2)c1OC [Compound 8],5000 to 100000,500 to 5000,5000 to 100000,0.01 to 10,–,–,–,–
CNC(=O)c1nnc(NC(=O)C2CC2)cc1Nc1cccc(-c2ccc(C(=O)N(C)Cc3cc(C#N)ccn3)cn2)c1OC [Compound 55],500 to 5000,500 to 5000,5000 to 100000,0.01 to 10,–,–,–,–
CNC(=O)c1nnc(NC(=O)C2CC2)cc1Nc1cccc(-c2ccc(C(=O)N(C)Cc3cc(C#N)ccn3)nn2)c1OC [Compound 35],500 to 5000,50 to 500,5000 to 100000,0.01 to 10,–,–,–,–
CNC(=O)c1nnc(NC(=O)C2CC2)cc1Nc1cccc(-c2cnc(C(=O)N(C)Cc3cccnn3)c(F)c2)c1OC [Compound 48],500 to 5000,500 to 5000,5000 to 100000,0.01 to 10,–,–,–,–
CNC(=O)c1nnc(NC(=O)C2CC2)cc1Nc1cccc(-c2nnc(C3CN(Cc4cccc(C)n4)C3)o2)c1OC [Compound 157],5000 to 100000,5000 to 100000,5000 to 100000,0.01 to 10,–,–,–,–
COc1c(Nc2cc(NC(=O)C3CC3)nnc2C(N)=O)cccc1-c1ccc(C(=O)N(C)Cc2cc(C#N)ccn2)nc1 [Compound 220],–,–,–,–,50 to 500,50 to 500,50 to 500,0.01 to 10

# Next, values leading:
IC50 ([1]; TF1 JAK2 V617F) [nM],IC50 ([2]; TF1 JAK2 V617F) [nM],"Kd ([3]; SPR, JAK2 JH1 domain) [nM]","Kd ([4]; SPR, JAK2 JH2 domain) [nM]","IC50 [1, 5] [nM]","IC50 [2, 5] [nM]",Kd [3] [nM],Kd [4] [nM],Compound
50 to 500,50 to 500,5000 to 100000,0.01 to 10,–,–,–,–,CNC(=O)c1nnc(NC(=O)C2CC2)cc1Nc1cccc(-c2ccc(C(=O)N(C)Cc3c(C)ccnc3C)nc2)c1OC [Compound 133]
50 to 500,50 to 500,5000 to 100000,0.01 to 10,–,–,–,–,CNC(=O)c1nnc(NC(=O)C2CC2)cc1Nc1cccc(-c2ccc(C(=O)N(C)Cc3ccn(C)n3)nc2)c1OC [Compound 26]
500 to 5000,500 to 5000,5000 to 100000,0.01 to 10,–,–,–,–,CNC(=O)c1nnc(NC(=O)C2CC2)cc1Nc1cccc(-c2ccc(C(=O)N(C)Cc3nnc(C)s3)nc2)c1OC [Compound 149]
50 to 500,50 to 500,5000 to 100000,0.01 to 10,–,–,–,–,CNC(=O)c1nnc(NC(=O)C2CC2)cc1Nc1cccc(-c2ccc(C(=O)N(C)Cc3cnn(C)c3)nc2)c1OC [Compound 17]
